Data taken from patent US7288557B2, “Triazole derivatives” (Hoffmann-La Roche Inc., priority 2004, dated 2007).

System: HEK293 cells
Assay: Viability assay of HEK293 cells (CellTiter-Glo luminescent cell viability assay)
Type: cell-based, human
Conditions: 7 days (168 h) incubation, 3 μM to 0.00015 μM
Procedure: Viability Assay of HEK293 Cells
A viability assay was performed using the CellTiter-Glo® Luminescent Cell Viability Assay (see Promega Corporation's Technical No. 288, pp. 1-11 [revised February 2004] which is hereby incorporated by reference in its entirety). This assay is a homogeneous method of determining the number of viable cells in culture based on quantitation of the ATP present, an indicator of metabolically active cells. The assay is designed for use with multiwell formats, making it ideal for automated high-throughput screening (HTS), cell proliferation and cytotoxicity assays. The homogeneous assay procedure involves adding a single reagent (containing luciferase, luciferan substrate, and buffer) directly to cells cultured in serum-supplemented medium. Cell washing, removal of medium and multiple pipetting steps are not required. The system detects as few as 15 cells/well in a 384-well format in 10 minutes after adding reagent and mixing.
The homogeneous “add-mix-measure” format results in cell lysis and generation of a luminescent signal proportional to the amount of ATP present. The amount of ATP is directly proportional to the number of cells present in culture. The above-referenced assay generates a “glow-type” luminescent signal, produced by the luciferase reaction, which has a half-life generally greater than five hours, depending on cell type and medium used. The extended half-life eliminates the need to use reagent injectors and provides flexibility for continuous or batch mode processing of multiple plates. […]
HEK293 cells (human embryonic kidney cell line transformed by Adenovirus 5 fragments, ATCC-No. CRL 1573) were cultivated in Dulbecco's Modified Eagle Medium (D-MEM) (1×) liquid (high glucose) (which includes L-Alanyl-L-Glutamine [a stabilized a form of L-Glutamine], 4500 mg/L glucose, and 110 mg/L sodium pyruvate) from Invitrogen Corporation (Invitrogen Catalog Number 31966-021 [now 10569-010] which is hereby incorporated by reference in its entirety), 5% Fetal Calf Serum (FCS, Sigma Cat-No. F4135 [FBS] which is hereby incorporated by reference in its entirety), and 100 Units/ml penicillin/100 μg/ml streptomycin (=Pen/Strep from Invitrogen Cat. No. 15140, which is hereby incorporated by reference in its entirety). […] After 7 days the above viability assay was performed in accordance with the following steps: • Step 1: The cell-plate was equilibrated to room temperature for approximately 30 minutes and than the assay reagent (containing luciferase, luciferan substrate, and buffer) was added. • Step 2: The contents were carefully mixed for 15 minutes to induce cell lysis. • Step 3: After 45 minutes the luminescent signal was measured in Victor 2, (scanning multiwell spectrophotometer, Wallac). […]

Structure (SMILES) | IC50 (Homo sapiens) [nM] | IC50 [nM]
O=C(CCCn1ccnn1)c1ccc(OCc2coc(/C=C/c3ccc(OC(F)(F)F)cc3)n2)cc1 [Example 1, 4-[1,2,3]Triazol-1-yl-1-(4-{2-[(E)-2-(4-trifluoromethoxy-phenyl)-vinyl]-oxazol-4-ylmethoxy}-phenyl)-butan-1-one] | 17.9 | 
O=C(CCCn1ccnn1)c1ccc(OCc2coc(/C=C/c3ccc(SC(F)(F)F)cc3)n2)cc1 [Example 3, 4-[1,2,3]Triazol-1-yl-1-(4-{2-[(E)-2-(4-trifluoromethylsulfanyl-phenyl)-vinyl]-oxazol-4-ylmethoxy}-phenyl)-butan-1-one] | 29.9 | 
OC(CCCn1ccnn1)c1ccc(OCc2coc(/C=C/c3ccc(OC(F)(F)F)cc3)n2)cc1 (racemic) [Example 2, (rac)-4-[1,2,3]Triazol-1-yl-1-(4-{2-[(E)-2-(4-trifluoro-methoxyphenyl)-vinyl]-oxazol-4-ylmethoxy}-phenyl)-butan-1-ol] |  | 21.1
O=C(CCCn1ccnn1)c1ccc(OCc2coc(C=Cc3ccc(C(F)(F)F)cc3)n2)cc1 [Reference compound, 4-[1,2,3]Triazol-1-yl-1-(4-{2-[2-(4-trifluoromethyl-phenyl)-vinyl]-oxazol-4-ylmethoxy}-phenyl)-butan-1-one, reference compound] | 164 | 
